Assay results taken from patent US11266712B2, “Antimicrobial peptides and methods of using the same” (Riptide Bioscience, Inc., priority 2018, dated 2022).

Key:
C. albicans (ATCC 44858) = experiment: Rodent model of vulvovaginal candidiasis; type: in vivo; details: rat, oral fluconazole
Method: FIG. 8A to 8B indicates topical treatment of exemplary peptide RP557 reduces rodent vaginal candidiasis. Effects of RP557, miconazole and oral fluconazole in a C. albicans vaginal infection rodent model. On Day 0, rats were inoculated intravaginally with C. albicans. RP557 and miconazole were administered twice daily (FIG. 8A). A separate group received oral fluconazole (FIG. 8B). Further details are provided in the experimental section.
RP557 was effective in eradicating C. albicans in a rodent model of vulvovaginal candidiasis (FIG. 8A-8B).
FIG. 8A to 8B. RP557 topical treatment reduces rodent vaginal candidiasis. Effects of RP557, miconazole and oral fluconazole in the C. albicans (ATCC 44858) vaginal infection rodent model. On Day 0, rats were inoculated intravaginally (IVG) with C. albicans at 1.46×10^7 CFU/rat. RP557 and miconazole at 20 mg/mL were administered IVG at 0.1 mL/rat twice daily at 8 hr intervals starting from 48 hr after infection for 3 days. CPUs were evaluated on Day 5 with limit of detection (LOD) 0.7 CFU/rat. Significant difference, compared to vehicle, determined by one-way ANOVA followed by Dunnett's test (*p<0.05, ****p<0.0001). A separate group receiving oral fluconazole; *p<0.05 versus 0.1 and 10 mg/kg fluconazole.

P. aeruginosa 27853 = experiment: Resistance development, 30 serial passages at sub-MIC; type: cell-based; details: after 30 days / 30 serial passages
Method: (§1) Sub-inhibitory concentrations of RP557, gentamicin and clindamycin were incubated with P. aeruginosa 27853 and S. aureus 29213 for 24 hours. Bacteria showing growth in the highest concentration were re-passaged in fresh dilutions containing sub-minimum inhibitory concentration (MIC) levels of each component for 30 consecutive passages.
as §1, with “FIG. 4A to 4B. […] Sub-inhibitory” for “Sub-inhibitory”, “passages; means are shown.” for “passages.”

S. aureus 29213 = experiment: as above; type: cell-based; details: after 30 days / 30 serial passages
Method: as §1
as §1, with “FIG. 4A to 4B. […] Sub-inhibitory” for “Sub-inhibitory”, “passages; means are shown.” for “passages.”

Compound: OC(Cn1cncn1)(Cn1cncn1)c1ccc(F)cc1F [fluconazole]
- activity on fungal counts (C. albicans (ATCC 44858)): minimal activity

Compound: gentamicin
- growth at multiple of the MIC after 30 days (P. aeruginosa 27853): 4096 times the minimum inhibitory concentration (MIC)

Compound: CCC[C@@H]1C[C@@H](C(=O)N[C@@H]([C@H]2O[C@H](SC)[C@H](O)[C@@H](O)[C@H]2O)[C@H](C)Cl)N(C)C1 [clindamycin]
- growth at multiple of the MIC after 30 days (S. aureus 29213): 256 times the minimum inhibitory concentration (MIC)
